One data set deals with T1, Progesterone receptor (Bos taurus, UniProt Q690N0).
T1 sequence (Q690N0 whole entry): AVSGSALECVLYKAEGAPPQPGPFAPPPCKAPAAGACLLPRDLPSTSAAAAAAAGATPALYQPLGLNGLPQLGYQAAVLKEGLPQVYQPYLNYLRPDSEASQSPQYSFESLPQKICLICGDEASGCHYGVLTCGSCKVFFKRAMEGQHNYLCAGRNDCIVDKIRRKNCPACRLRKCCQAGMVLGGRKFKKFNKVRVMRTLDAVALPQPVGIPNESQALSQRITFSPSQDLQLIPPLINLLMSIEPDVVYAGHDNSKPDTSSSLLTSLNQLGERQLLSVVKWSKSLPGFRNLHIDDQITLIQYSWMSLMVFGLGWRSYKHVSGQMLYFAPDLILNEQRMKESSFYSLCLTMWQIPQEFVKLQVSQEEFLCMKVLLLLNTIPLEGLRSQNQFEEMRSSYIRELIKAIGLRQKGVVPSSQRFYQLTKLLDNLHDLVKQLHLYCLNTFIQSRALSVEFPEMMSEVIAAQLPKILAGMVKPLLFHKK
The data set is described as follows: DRUGMATRIX: Progesterone radioligand binding (ligand: [3H] R-5020). The class given is tissue-based, Uterus. Conditions: Not Active = under 50% inhibition at 10 µM.
Take COBALT(II) ACETYLACETONATE: the IC50 entry was “Not Active” and the Ki result is on record as “Not Active”.

Regarding INSULIN HUMAN, the IC50 entry was “Not Active” and the Ki result was “Not Active”.

In the case of POLYVINYL ALCOHOL, the IC50 result is listed as “Not Active” and the Ki entry is recorded as “Not Active”.

A further data set deals with Cytochrome P450 3A4 (Homo sapiens, UniProt P08684). The note with it: bti-tn-5b1-4.
Sequence of Cytochrome P450 3A4 (P08684 whole entry): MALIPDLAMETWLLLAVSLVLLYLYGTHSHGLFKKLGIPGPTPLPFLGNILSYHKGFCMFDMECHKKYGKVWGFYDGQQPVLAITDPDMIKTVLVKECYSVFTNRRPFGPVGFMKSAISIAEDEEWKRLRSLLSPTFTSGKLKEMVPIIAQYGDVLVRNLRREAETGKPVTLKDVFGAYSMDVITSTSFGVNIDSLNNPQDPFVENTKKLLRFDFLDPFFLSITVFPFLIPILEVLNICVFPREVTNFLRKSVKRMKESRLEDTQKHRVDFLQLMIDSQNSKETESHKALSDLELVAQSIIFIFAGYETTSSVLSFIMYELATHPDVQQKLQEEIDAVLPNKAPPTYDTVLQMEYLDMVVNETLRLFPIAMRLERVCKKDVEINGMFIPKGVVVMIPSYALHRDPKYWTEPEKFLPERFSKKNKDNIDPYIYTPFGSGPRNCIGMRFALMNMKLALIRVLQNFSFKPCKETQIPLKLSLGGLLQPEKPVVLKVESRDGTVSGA
For the substance COBALT(II) ACETYLACETONATE, the IC50 entry is given as “Not Active” and the Ki entry is on record as “Not Active”.

In the case of INSULIN HUMAN, the IC50 entry is recorded as “Not Active” and the Ki entry is “Not Active”.

Regarding POLYVINYL ALCOHOL, the IC50 entry was “Not Active” and the Ki entry is given as “Not Active”.

For a further data set, the target named is C-C chemokine receptor type 2 (Homo sapiens, UniProt P41597). The data set is classed as cell membranes, CHO-K1, Membrane. Conditions: cho-k1. Further: in other assays of this panel Not Active means under 50% inhibition at 10 µM.
Sequence of C-C chemokine receptor type 2 (P41597 whole entry): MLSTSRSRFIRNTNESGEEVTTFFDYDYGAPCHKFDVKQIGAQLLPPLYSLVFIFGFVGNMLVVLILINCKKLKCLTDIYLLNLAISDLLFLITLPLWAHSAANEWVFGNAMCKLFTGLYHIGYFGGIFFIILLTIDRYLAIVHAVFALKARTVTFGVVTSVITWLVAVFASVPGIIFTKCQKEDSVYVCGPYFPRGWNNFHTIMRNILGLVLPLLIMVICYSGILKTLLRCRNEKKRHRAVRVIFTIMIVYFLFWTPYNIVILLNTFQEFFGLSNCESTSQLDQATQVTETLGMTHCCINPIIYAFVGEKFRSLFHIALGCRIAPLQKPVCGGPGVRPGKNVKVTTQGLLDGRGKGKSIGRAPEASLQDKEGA
On to COBALT(II) ACETYLACETONATE, for which the IC50 entry was “Not Active” and the Ki result is on record as “Not Active”.

Regarding INSULIN HUMAN, the IC50 entry is listed as “Not Active” and the Ki result is recorded as “Not Active”.

Take POLYVINYL ALCOHOL: the IC50 result is “Not Active” and the Ki result is recorded as “Not Active”.

The target in the next data set is Voltage-gated inwardly rectifying potassium channel KCNH2 (Homo sapiens, UniProt Q12809). Conditions: hek293. Further: in other assays of this panel Not Active means under 50% inhibition at 10 µM.
Sequence of Voltage-gated inwardly rectifying potassium channel KCNH2 (Q12809 whole entry): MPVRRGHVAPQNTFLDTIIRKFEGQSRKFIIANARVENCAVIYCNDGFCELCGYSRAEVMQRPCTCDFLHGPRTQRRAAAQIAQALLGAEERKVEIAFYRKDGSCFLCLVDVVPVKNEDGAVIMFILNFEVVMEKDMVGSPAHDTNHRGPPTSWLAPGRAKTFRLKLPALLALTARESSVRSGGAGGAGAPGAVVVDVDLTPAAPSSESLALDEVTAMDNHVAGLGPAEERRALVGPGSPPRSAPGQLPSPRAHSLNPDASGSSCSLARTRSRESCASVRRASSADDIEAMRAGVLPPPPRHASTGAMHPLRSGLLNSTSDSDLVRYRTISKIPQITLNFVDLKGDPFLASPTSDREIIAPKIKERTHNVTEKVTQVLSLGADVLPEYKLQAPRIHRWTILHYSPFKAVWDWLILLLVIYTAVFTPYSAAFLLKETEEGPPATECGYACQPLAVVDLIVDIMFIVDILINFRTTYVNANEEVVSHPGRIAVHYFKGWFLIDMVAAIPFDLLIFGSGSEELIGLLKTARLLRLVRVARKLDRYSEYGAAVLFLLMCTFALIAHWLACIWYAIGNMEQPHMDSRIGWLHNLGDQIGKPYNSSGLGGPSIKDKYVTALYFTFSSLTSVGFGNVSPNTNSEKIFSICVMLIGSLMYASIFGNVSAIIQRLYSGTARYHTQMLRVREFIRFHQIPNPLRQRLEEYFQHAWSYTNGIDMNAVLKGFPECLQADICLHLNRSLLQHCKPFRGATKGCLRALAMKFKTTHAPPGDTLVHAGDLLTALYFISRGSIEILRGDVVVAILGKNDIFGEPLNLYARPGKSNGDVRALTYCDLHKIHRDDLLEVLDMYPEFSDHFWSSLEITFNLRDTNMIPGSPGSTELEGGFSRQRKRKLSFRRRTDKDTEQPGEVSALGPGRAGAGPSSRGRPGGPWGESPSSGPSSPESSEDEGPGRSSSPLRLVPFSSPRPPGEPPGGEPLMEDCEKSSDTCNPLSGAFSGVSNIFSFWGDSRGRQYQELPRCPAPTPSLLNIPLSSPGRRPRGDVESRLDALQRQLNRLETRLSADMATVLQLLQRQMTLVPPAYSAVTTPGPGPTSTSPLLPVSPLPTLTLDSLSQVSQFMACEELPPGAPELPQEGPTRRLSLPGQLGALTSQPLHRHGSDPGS
For COBALT(II) ACETYLACETONATE, the IC50 entry is “Not Active” and the Ki entry was “Not Active”.

On to INSULIN HUMAN, for which the IC50 entry was “Not Active” and the Ki entry was “Not Active”.

Take POLYVINYL ALCOHOL: the IC50 result is “Not Active” and the Ki entry was “Not Active”.

Test system in the next data set: not listed separately
Nature of the data set: DRUGMATRIX: Imidazoline I2, Central radioligand binding (ligand: [3H] Idazoxan). The class given is cell membranes, Rattus norvegicus, Wistar, Cerebral cortex, Membrane. Conditions: Not Active = under 50% inhibition at 10 µM.
As to COBALT(II) ACETYLACETONATE, the IC50 entry is listed as “Not Active” and the Ki entry was “Not Active”.

For the substance INSULIN HUMAN, the IC50 result was “Not Active” and the Ki entry is “Not Active”.

Consider POLYVINYL ALCOHOL, for which the IC50 result is reported as “Not Active” and the Ki result is listed as “Not Active”.

Test system in a further data set: not listed separately
Nature of the data set: DRUGMATRIX: Sigma2 radioligand binding (ligand: [3H] Ifenprodil). The class given is cell membranes, Rattus norvegicus, Wistar, Brain, Membrane. The note with it: Not Active = under 50% inhibition at 10 µM.
Take COBALT(II) ACETYLACETONATE: the IC50 entry was “Not Active” and the Ki result was “Not Active”.

Consider INSULIN HUMAN, for which the IC50 entry is on record as “Not Active” and the Ki entry is “Not Active”.

In the case of POLYVINYL ALCOHOL, the IC50 result is on record as “Not Active” and the Ki entry is on record as “Not Active”.
